Assay results as given in patent US20250270190A1, “KIT INHIBITORS” (BLUEPRINT MEDICINES CORPORATION, priority 2022, published 2025).
Where a name gives a salt, the structure may show the parent alone.

Target: T1, c-kit autophosphorylation (Phospho c-Kit Tyr721) in HMC 1.1 (exon 11/13) cells, V654A (Homo sapiens, UniProt P10721, V560G/V654A)
T1 construct: endogenous in cells; host or cells: HMC 1.1 (exon 11/13) cells
Test: pKIT Meso Scale Discovery (MSD) assay, inhibition of autophosphorylation of KIT, HMC1.1_V654A
Type: cell-based
Conditions: Table 1, cell line not named for Table 1, b1056 names pKIT HMC1.1_V654A, read-out: Code (IC50 for inhibition of autophosphorylation of KIT, pKIT MSD assay)
Text: In this MSD assay, specific capture antibodies for the analytes were coated in arrays in each well of a 96-well carbon electrode plate surface. The detection system used SULFO-TAG™ labels that emit light upon electrochemical stimulation initiated at the electrode surfaces of the […] and MULTI-SPOT® plates. The electrical stimulation was decoupled from the output signal, which was light and generated assays with minimal background. The goal of this assay was to assess the percent inhibition of autophosphorylation of c-kit in cells when treated with compounds of the disclosure in a dose-dependent manner.
HMC1.1 cells were maintained in IMDM media supplemented with 20% Calf Serum with Iron and 100 units/mL Penicillin-Streptomycin and grown in a 37° C. humidified tissue culture incubator. HMC1.1 cells were passaged by 1:5 dilution into fresh IMDM media supplemented with 20% Calf Serum with Iron and 100 units/mL Penicillin-Streptomycin every 5-7 days and were discarded after 20 passages.
Seeding was performed as follows: HMC cells were brought to 1×10^6 cells/mL in fresh phenol red free, serum-free, iron-free IDM media with Pen/Strep; cells were seeded/plated into respective U-bottom plate by dispensing 50 μL/well (50,000 cells) using the Multidrop, and covered and incubated cells at 37° C. in a humidified tissue culture incubator for 4 hours (starvation).
Dosing was performed as follows: The compound mother plate was prepared by adding 16 μL of compound to 24 μL of DMSO to row A, odd-numbered columns of screen matrix plate. […] Intermediate plates were prepared in V-bottom plates by dispensing 98 μL of phenol red free, serum free IMDM media with Pen/Strep into all wells. 2 μL DMSO or 2 μL 10 mM staurosporine was added to appropriate control wells. At the end of four hours, the Bravo protocol 10 cpds vertical dose MSD 2 U-plates 96-well was used to: add 2 μL from the compound plate to the intermediate plate and dose cells with 7 μL from the intermediate plate. The cells were covered and incubated at 37° C. in a humidified tissue culture incubator for 90 min. The complete lysis buffer was prepared with AlphaLISA 5× Lysis Buffer supplemented with 1× protease inhibitor cocktail and kept on ice. The cells were pelleted by centrifuging plate at 2500×g for 5 min, 4° C. and media removed. Complete lysis buffer was added (14 μL/well). The cells were covered and shaken at 4° C. on a plate shaker at 600 rpm for 30 min and kept cold
The MSD protocol was preformed as follows: Tris Wash Buffer (2L) was prepared by diluting 10× stock of Tris Wash Buffer to 1× in water. Blocking Solution was prepared by dissolving 600 mg Blocker A in 20 mL 1× Trish Wash Buffer (per plate). The Antibody Dilution Buffer was prepared by mixing 1 mL Blocking solution and 2 mL 1× Trish Wash Buffer (per plate) and kept on ice. Blocking Solution was added (150 μL/well) to each MSD plate using a multichannel repeater pipette. The plate was covered and incubated at room temperature on a plate shaker at 700 rpm for hr. The Bio Tek protocol RL-96w-wash-MSD_stacker_fromC was used to wash plates 3× with 150 μL/well. Cells were pelleted by centrifuging lysate plates at 2500×g for 5 mins. The Bravo protocol was used (transfer 25 ul supernatants from V-96 to assay plate) to transfer 25 μL sample lysate per well to each MSD plate. The plates were covered and incubated at room temperature on a plate shaker at 700 rpm for hr. The Bio Tek protocol RL-96w-wash-MSD_stacker_fromC was used to wash plates 3× with 150 μL/well. The Detection Antibody Solution was prepared by diluting the 60 μL of the 50× antibody stock in 2.94 mL of the Antibody Dilution Buffer (per plate) and kept on ice. 25 μL/well of detection antibody solution was added to each MSD plate. The plates were covered and incubated at room temperature on a plate shaker at 700 rpm for 1 hr. The Read Buffer was prepared by diluting 5 mL of 4× stock of Read Buffer to 1× in 15 mL water (per plate).

T1 sequence (P10721 26-976 V560G/V654A): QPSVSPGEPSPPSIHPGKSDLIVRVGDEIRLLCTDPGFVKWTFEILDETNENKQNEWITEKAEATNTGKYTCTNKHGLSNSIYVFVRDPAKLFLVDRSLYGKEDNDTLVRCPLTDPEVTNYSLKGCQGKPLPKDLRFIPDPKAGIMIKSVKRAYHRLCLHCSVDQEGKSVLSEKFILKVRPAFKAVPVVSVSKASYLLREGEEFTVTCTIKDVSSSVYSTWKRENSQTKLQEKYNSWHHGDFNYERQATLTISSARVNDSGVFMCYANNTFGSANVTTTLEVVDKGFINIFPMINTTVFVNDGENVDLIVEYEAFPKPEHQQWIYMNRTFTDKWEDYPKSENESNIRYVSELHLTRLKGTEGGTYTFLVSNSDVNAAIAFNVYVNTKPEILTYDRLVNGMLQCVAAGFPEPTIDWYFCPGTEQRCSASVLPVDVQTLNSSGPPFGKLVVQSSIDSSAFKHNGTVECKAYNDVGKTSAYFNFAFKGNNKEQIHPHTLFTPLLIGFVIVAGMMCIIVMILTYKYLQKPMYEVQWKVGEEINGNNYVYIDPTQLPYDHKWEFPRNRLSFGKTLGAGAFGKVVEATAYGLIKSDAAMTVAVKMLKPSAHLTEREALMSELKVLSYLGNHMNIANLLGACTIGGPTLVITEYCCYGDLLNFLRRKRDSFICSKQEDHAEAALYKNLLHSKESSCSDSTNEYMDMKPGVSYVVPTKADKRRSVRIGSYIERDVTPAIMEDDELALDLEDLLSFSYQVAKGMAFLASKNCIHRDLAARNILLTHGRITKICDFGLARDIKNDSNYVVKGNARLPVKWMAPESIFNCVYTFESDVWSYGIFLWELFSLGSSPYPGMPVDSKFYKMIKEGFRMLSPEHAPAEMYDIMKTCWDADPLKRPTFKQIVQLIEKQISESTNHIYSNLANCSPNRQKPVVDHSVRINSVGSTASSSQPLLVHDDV

In the case of `CNC(=O)c1cnc(Nc2cc(N)nc(C(F)F)n2)cc1NC1COC1` [Compound 42, 6-((6-amino-2-(difluoromethyl)pyrimidin-4-yl)amino)-N-methyl-4-(oxetan-3-ylamino)nicotinamide], the IC50 is reported as 10 to 40 nM.

For `COc1cc(Nc2cc(N)nc(C(F)F)n2)ncc1-c1cnn([C@@H]2CCOC2)c1` (single isomer, unassigned) [Compound 110, (R)-2-(difluoromethyl)-N4-(4-methoxy-5-(1-(tetrahydrofuran-3-yl)-1H-pyrazol-4-yl)pyridin-2-yl)pyrimidine-4,6-diamine or (S)-2-(difluoromethyl)-N4-(4-methoxy-5-(1-(tetrahydrofuran-3-yl)-1H-pyrazol-4-yl)pyridin-2-yl)pyrimidine-4,6-diamine], the IC50 was < 10 nM.

In the case of `Nc1cc(Nc2cc(OC(F)F)c(-c3cnn(C4CC4)c3)cn2)nc(C(F)F)n1` [Compound 127, N4-(5-(1-cyclopropyl-1H-pyrazol-4-yl)-4-(difluoromethoxy)pyridin-2-yl)-2-(difluoromethyl)pyrimidine-4,6-diamine], the IC50 is reported as < 10 nM.

Compound `[2H]C([2H])([2H])NC(=O)c1cnc(Nc2cc(N)nc(C(F)F)n2)cc1NC` [Compound 6, 6-((6-amino-2-(difluoromethyl)pyrimidin-4-yl)amino)-N-(methyl-d3)-4-(methylamino)nicotinamide] has an IC50 of 10 to 40 nM.

`COc1cc(Nc2cc(N)nc(C(F)F)n2)ncc1-c1cnn(C[C@H]2CCN2C)c1` (single isomer, unassigned) [Compound 138, (R)-2-(difluoromethyl)-N4-(4-methoxy-5-(1-((1-methylazetidin-2-yl)methyl)-1H-pyrazol-4-yl)pyridin-2-yl)pyrimidine-4,6-diamine or (S)-2-(difluoromethyl)-N4-(4-methoxy-5-(1-((1-methylazetidin-2-yl)methyl)-1H-pyrazol-4-yl)pyridin-2-yl)pyrimidine-4,6-diamine] was tested, and the IC50 was < 10 nM.

In the case of `CNC(=O)c1cnc(Nc2cc(N)nc([C@@H](C)F)n2)cc1NC(C)C` [Compound 20, (R)-6-((6-amino-2-(1-fluoroethyl)pyrimidin-4-yl)amino)-4-(isopropylamino)-N-methylnicotinamide], the IC50 is reported as > 40 nM.

For `COc1cc(Nc2cc(N)nc(C(F)F)n2)ncc1-c1cnn(CC2CCO2)c1` (stereo not shown) [Compound 111, 2-(difluoromethyl)-N4-(4-methoxy-5-(1-(oxetan-2-ylmethyl)-1H-pyrazol-4-yl)pyridin-2-yl)pyrimidine-4,6-diamine], the IC50 was < 10 nM.

`COc1cc(Nc2cc(N)nc(C(F)F)n2)ncc1-c1cnn([C@H]2CCNC2)c1` (single isomer, unassigned) [Compound 99, (S)-2-(difluoromethyl)-N4-(4-methoxy-5-(1-(pyrrolidin-3-yl)-1H-pyrazol-4-yl)pyridin-2-yl)pyrimidine-4,6-diamine or (R)-2-(difluoromethyl)-N4-(4-methoxy-5-(1-(pyrrolidin-3-yl)-1H-pyrazol-4-yl)pyridin-2-yl)pyrimidine-4,6-diamine] showed an IC50 of 10 to 40 nM.

With `Cn1cc(-c2cnc(Nc3cc(N)nc(C(F)F)n3)cc2OC[C@H]2C[C@H](O)C2)cn1` [Compound 144, (1r,3r)-3-(((2-((6-amino-2-(difluoromethyl)pyrimidin-4-yl)amino)-5-(1-methyl-1H-pyrazol-4-yl)pyridin-4-yl)oxy)methyl)cyclobutan-1-ol] the IC50 was 10 to 40 nM.

With `Nc1cc(Nc2cc(OC3CC3)c(-c3cnn([C@@H]4CCNC4)c3)cn2)nc(C(F)F)n1` (single isomer, unassigned) [Compound 160, (R)-N4-(4-cyclopropoxy-5-(1-(pyrrolidin-3-yl)-1H-pyrazol-4-yl)pyridin-2-yl)-2-(difluoromethyl)pyrimidine-4,6-diamine or (S)-N4-(4-cyclopropoxy-5-(1-(pyrrolidin-3-yl)-1H-pyrazol-4-yl)pyridin-2-yl)-2-(difluoromethyl)pyrimidine-4,6-diamine] the IC50 was < 10 nM.

With `CNC(C)Cn1cc(-c2cnc(Nc3cc(N)nc(C(F)F)n3)cc2OC2CC2)cn1` (stereo not shown) [Compound 170, N4-(4-cyclopropoxy-5-(1-(2-(methylamino)propyl)-1H-pyrazol-4-yl)pyridin-2-yl)-2-(difluoromethyl)pyrimidine-4,6-diamine] the IC50 was < 10 nM.

With `COc1cc(Nc2cc(N)nc(C(F)F)n2)ncc1-c1cnn([C@H]2CCOC2)c1` (single isomer, unassigned) [Compound 109, (S)-2-(difluoromethyl)-N4-(4-methoxy-5-(1-(tetrahydrofuran-3-yl)-1H-pyrazol-4-yl)pyridin-2-yl)pyrimidine-4,6-diamine or (R)-2-(difluoromethyl)-N4-(4-methoxy-5-(1-(tetrahydrofuran-3-yl)-1H-pyrazol-4-yl)pyridin-2-yl)pyrimidine-4,6-diamine] the IC50 was < 10 nM.

`CC(C)Oc1cc(Nc2cc(N)nc([C@H](C)F)n2)ncc1-c1cnn([C@H]2CCOC2)c1` (single isomer, unassigned) [Compound 157, 2-((S)-1-fluoroethyl)-N4-(4-isopropoxy-5-(1-((S)-tetrahydrofuran-3-yl)-1H-pyrazol-4-yl)pyridin-2-yl)pyrimidine-4,6-diamine or 2-((S)-1-fluoroethyl)-N4-(4-isopropoxy-5-(1-((R)-tetrahydrofuran-3-yl)-1H-pyrazol-4-yl)pyridin-2-yl)pyrimidine-4,6-diamine] was tested, and the IC50 was < 10 nM.

In the case of `CN[C@@H](C)Cn1cc(-c2cnc(Nc3cc(N)nc(C(F)F)n3)cc2OC)cn1` (single isomer, unassigned) [Compound 117, (S)-2-(difluoromethyl)-N4-(4-methoxy-5-(1-(2-(methylamino)propyl)-1H-pyrazol-4-yl)pyridin-2-yl)pyrimidine-4,6-diamine or (R)-2-(difluoromethyl)-N4-(4-methoxy-5-(1-(2-(methylamino)propyl)-1H-pyrazol-4-yl)pyridin-2-yl)pyrimidine-4,6-diamine], the IC50 is reported as < 10 nM.

`CCNc1cc(Nc2cc(N)nc(C(F)F)n2)ncc1C(=O)NC1CC2(CNC2)C1` [Compound 149, 6-((6-amino-2-(difluoromethyl)pyrimidin-4-yl)amino)-4-(ethylamino)-N-(2-azaspiro[3.3]heptan-6-yl)nicotinamide] was tested, and the IC50 was > 40 nM.

In the case of `C[C@@H](CF)Oc1cc(Nc2cc(N)nc(C(F)F)n2)ncc1-c1cnn(C)c1` (single isomer, unassigned) [Compound 87, (S)-2-(difluoromethyl)-N4-(4-((1-fluoropropan-2-yl)oxy)-5-(1-methyl-1H-pyrazol-4-yl)pyridin-2-yl)pyrimidine-4,6-diamine or (R)-2-(difluoromethyl)-N4-(4-((1-fluoropropan-2-yl)oxy)-5-(1-methyl-1H-pyrazol-4-yl)pyridin-2-yl)pyrimidine-4,6-diamine], the IC50 is reported as < 10 nM.

`COc1cc(Nc2cc(N)nc(C(F)F)n2)ncc1-c1cnn(CCN(C)C)c1` [Compound 115, 2-(difluoromethyl)-N4-(5-(1-(2-(dimethylamino)ethyl)-1H-pyrazol-4-yl)-4-methoxypyridin-2-yl)pyrimidine-4,6-diamine] showed an IC50 of 10 to 40 nM.

In the case of `COc1cc(Nc2cc(N)nc(C(F)F)n2)ncc1-c1cnn(CCO)c1` [Compound 59, 2-(4-(6-((6-amino-2-(difluoromethyl)pyrimidin-4-yl)amino)-4-methoxypyridin-3-yl)-1H-pyrazol-1-yl)ethan-1-ol trifluoroacetate], the IC50 is reported as 10 to 40 nM.

`CNC(=O)c1cnc(Nc2cc(N)nc(C(F)F)n2)cc1NCC1CCC1` [Compound 61, 6-((6-amino-2-(difluoromethyl)pyrimidin-4-yl)amino)-4-((cyclobutylmethyl)amino)-N-methylnicotinamide] gave an IC50 of 10 to 40 nM.
